The subject of one assay is FKBP. As to conditions: Bierer et al., 1990; cited from earlier work.
In another assay the test system is calcineurin (CN). As to conditions: complex with FKBP; cited from earlier work.
Another assay concerns CyPB. Nature of the assay: Yeast GAL4 two hybrid, Gag/mutant fusions versus clone 4.1 (CyPB). The format is cell-based, Human. To be noted: versus 4.1 / CyPB. The text has this: (§1) FIG. 2. The Effect of Mutations in Pr55^gag on the Ability of Gag-GAL4 Fusion Proteins to Activate β-Gal Activity in Yeast Cotransformed with GAL4-CyP Fusion Protein Expression Plasmids. Mutant forms of Pr55^gag were subcloned into pGAL4DB-HG. A schematic of the gag coding sequence is shown, and sequence numbers indicated the nucleotide position in the HXB2C provirus with respect to the 5' end of the 5' long terminal repeat. The names of the mutants indicate the nucleotide sequences deleted or the location of linker inserts. Coding sequences retained by the mutants are shown with a box. Linker insertion mutations are denoted with a triangle. Yeast strain GGY1::171, which carries a GAL1-lacZ fusion gene integrated into the chromosome, was cotransformed with each mutant plasmid against plasmid 2.1 and against plasmid 4.1. Colonies were replica-plated onto nitrocellulose filters and scored for β-gal activity by incubation with X-Gal. Open boxes or triangles indicate that when tested against either 2.1 or 4.1, the mutant had activity equivalent to that of the wild-type (WT) Pr55^gag.
(§2) To localize the portion of Gag that mediates binding to the CyPs, the effect on binding of mutations in the Pr55^gag coding sequence was examined. […] Each of these plasmids encodes a stable fusion protein of the expected size detected on Western blot (Luban et al., 1993). […]

The subject of a further assay is CyPA. Kind of assay: Yeast GAL4 two hybrid, Gag/mutant fusions versus clone 2.1 (CyPA). The class given is cell-based, Human. To be noted: versus 2.1 / CyPA.
From the text: as §1, §2

The subject of a further assay is CyPs. To be noted: Sigal et al., 1991; cited from earlier work.
Another assay deals with T cell activation. As to conditions: Sigal et al., 1991; cited from earlier work.
The next assay relates to lymphocyte. As to conditions: Viscidi et al., 1989; cited from earlier work.

Non-standard residues stand in square brackets, D forms with d. Residues, ends and D or L forms follow the SMILES beside them. ξ: configuration not given here. ξNMeBmt = C/C=C/C[C@@H](C)[C@@H](O)C(NC)C(=O)O; NMeL = CN[C@@H](CC(C)C)C(=O)O; NMeV = CN[C@H](C(=O)O)C(C)C; NMeA = CN[C@@H](C)C(=O)O; Abu = CC[C@H](N)C(=O)O; Sar = CNCC(=O)O

For the molecule `CO[C@H]1C[C@@H]2CC[C@@H](C)[C@@](O)(O2)C(=O)C(=O)N2CCCC[C@H]2C(=O)O[C@H]([C@H](C)C[C@@H]2CC[C@@H](O)[C@H](OC)C2)CC(=O)[C@H](C)/C=C(\C)[C@@H](O)[C@@H](OC)C(=O)[C@H](C)C[C@H](C)/C=C/C=C/C=C/1C` [Rapamycin], the “competition with FK506 for binding to FKBP” value in the assay on FKBP is on record as “competes with FK506 for binding to FKBP”. Moreover, the “binding to and inhibiting CN phosphatase activity as FKBP complex” value in the assay with calcineurin (CN) is reported as “not capable of binding CN”.

Take `C=CC[C@@H]1/C=C(\C)C[C@H](C)C[C@H](OC)[C@H]2O[C@@](O)(C(=O)C(=O)N3CCCC[C@H]3C(=O)O[C@H](/C(C)=C/[C@@H]3CC[C@@H](O)[C@H](OC)C3)[C@H](C)[C@@H](O)CC1=O)[C@H](C)C[C@@H]2OC` [FK506]: in the assay on calcineurin (CN), the “binding to and inhibiting CN phosphatase activity as FKBP complex” value is “capable of binding to and inhibiting the phosphatase activity of CN”. “MoMLV Pr65^gag: Gag polyprotein of Moloney murine leukemia virus”: the “two hybrid interaction with CyPB (in words)” value with CyPB is on record as “no detectable activity”. The “two hybrid interaction with CyPA (in words)” value with CyPA is recorded as “no detectable activity”.

Regarding “MPMV pr76^gag: Gag polyprotein of Mason-Pfizer monkey virus”, the “two hybrid interaction with CyPB (in words)” value in the assay with CyPB is “no detectable activity”. The “two hybrid interaction with CyPA (in words)” value with CyPA is listed as “no detectable activity”. Turning to `C/C=C/C[C@@H](C)[C@@H](O)C1C(=O)N[C@@H](CC)C(=O)N(C)CC(=O)N(C)[C@@H](CC(C)C)C(=O)N[C@@H](C(C)C)C(=O)N(C)[C@@H](C)C(=O)N[C@@H](C)C(=O)N[C@H](C)C(=O)N(C)[C@@H](CC(C)C)C(=O)N(C)[C@@H](CC(C)C)C(=O)N(C)[C@@H](C(C)C)C(=O)N1C` (stereo partly shown) [MeAla-CsA] (cyclo(A[dA][NMeL][NMeL][NMeV][ξNMeBmt][Abu][Sar][NMeL]V[NMeA])), the “binding to CyPs” value with CyPs is “bind to CyPs”. Besides, the “suppression of T cell activation” value in the assay on T cell activation is on record as “do not suppress T cell activation”.

B1: Tat protein: Purified Tat protein (HIV-1) (protein, UniProt P04608 1-86, looked up)
Protein Tat: MEPVDPRLEPWKHPGSQPKTACTNCYCKKCCFHCQVCFITKALGISYGRKKRRQRRRAHQNSQTHQASLSKQPTSQPRGDPTGPKE
B1: the antigen-stimulated lymphocyte proliferation result in the assay with lymphocyte is given as “inhibits”.
